Data taken from the supplement of paper PMC10307832.

Assays:
Test in all cases: relative viability (nuclei count vs DMSO), 5 days (fraction); higher = more cells survive
Erlotinib = compound: C#Cc1cccc(Nc2ncnc3cc(OCCOC)c(OCCOC)cc23)c1 [Erlotinib]
Procedure, shortened: (§1)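 Lung cancer cell lines received five library-drug doses (not always all listed) spaced by √10, pinned on vehicle-anchored 1536-well plates after an overnight stay at 37 °C. Five days later, with no medium change, nuclei were Hoechst-stained, imaged at 4× and counted with MetaXpress. Viability is treated-well nuclei relative to vehicle-well nuclei, as a median across plates. Passing plates had control CV below 25% and at least one doubling.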

Phenformin = compound: N=C(N)NC(=N)NCCc1ccccc1 [Phenformin] (anchor plate); details: 250 µM
Procedure, shortened: as §1

AT9283 = compound: O=C(Nc1c[nH]nc1-c1nc2ccc(CN3CCOCC3)cc2[nH]1)NC1CC1 [AT9283]
Procedure, shortened: as §1

| Cell Line | relative viability (Erlotinib; 0.02 µM) | relative viability (Erlotinib; 0.2 µM) | relative viability (Erlotinib; 0.6325 µM) | relative viability (Erlotinib; 2 µM) | relative viability (Phenformin) | relative viability (AT9283; 0.003 µM) | relative viability (AT9283; 0.03 µM) | relative viability (AT9283; 0.09487 µM) | relative viability (AT9283; 0.3 µM) |
| --- | --- | --- | --- | --- | --- | --- | --- | --- | --- |
| SK-LU-1 | 1.11 | 1.11 | 1.13 | 0.907 | 0.523 | 1.06 | 0.691 | 0.312 | 0.335 |
| HARA | 1.04 | 0.707 | 0.823 | 0.466 | 0.46 | 0.859 | 0.446 | 0.166 | 0.171 |
| NCI-H1623 | 0.945 | 0.723 | 0.592 | 0.333 | 0.577 | 0.94 | 0.928 | 0.545 | 0.501 |
| PC-14 | 0.574 | 0.31 | 0.289 | 0.228 | 0.608 | 1.05 | 0.823 | 0.377 | 0.133 |
| SW 900 | 1 | 0.803 | 0.863 | 0.65 | 0.717 | 0.755 | 1.01 | 0.626 | 0.358 |
| NCI-H1915 | 1.07 | 1.01 |  | 0.977 | 0.359 | 0.925 | 0.929 | 0.461 | 0.256 |
| COR-L23 | 1.09 | 1.04 | 1.22 | 0.894 | 0.43 | 1.05 | 0.592 | 0.206 | 0.183 |
| NCI-H838 | 1 | 0.896 | 1.14 | 0.883 | 0.634 | 0.969 | 0.517 | 0.313 | 0.253 |
| A549 | 0.918 | 0.936 | 0.963 | 0.879 | 0.165 | 0.917 | 0.458 | 0.125 | 0.0647 |
| BEN | 0.927 | 0.954 | 1.19 | 0.961 | 0.263 | 0.874 | 0.965 | 0.23 | 0.278 |
| NCI-H1563 | 1.03 | 0.898 |  | 0.953 | 0.681 | 0.995 | 0.815 | 0.661 | 0.617 |
| SW 1573 | 1.02 | 0.955 | 1.02 | 0.925 | 0.385 | 0.913 | 0.326 | 0.222 | 0.177 |
| NCI-H1975 | 0.946 | 0.961 | 1.11 | 0.786 | 0.409 | 0.944 | 1.03 | 0.801 | 0.545 |
| LXF-289 | 0.98 | 1.03 | 0.971 | 0.963 | 0.518 | 0.995 | 0.993 | 0.465 | 0.22 |
| NCI-H1993 | 0.965 | 0.748 | 0.714 |  | 0.497 | 0.961 | 0.907 | 0.59 | 0.497 |
| NCI-H23 | 0.959 | 0.757 | 1.16 | 0.979 | 0.749 | 0.895 | 0.71 | 0.432 | 0.306 |
| NCI-H1650 | 0.739 | 0.756 | 0.838 | 0.671 | 0.465 | 0.933 | 0.788 | 0.447 | 0.3 |
| SK-MES-1 | 1.02 | 0.809 | 0.498 | 0.41 | 0.665 | 1.05 | 0.975 | 0.581 | 0.232 |
| NCI-H2023 | 0.966 | 0.89 | 0.946 | 0.758 | 0.43 | 1.03 | 0.935 | 0.266 | 0.138 |

| Cell Line | relative viability (Erlotinib; 0.02 µM) | relative viability (Erlotinib; 0.2 µM) | relative viability (Erlotinib; 0.6325 µM) | relative viability (Erlotinib; 2 µM) | relative viability (Phenformin) | relative viability (AT9283; 0.003 µM) | relative viability (AT9283; 0.03 µM) | relative viability (AT9283; 0.09487 µM) | relative viability (AT9283; 0.3 µM) |
| --- | --- | --- | --- | --- | --- | --- | --- | --- | --- |
| CAL-12T | 1 | 0.785 | 0.618 | 0.521 | 0.597 | 1.06 | 0.828 | 0.451 | 0.227 |
| LCLC-97TM1 | 1.07 | 1.14 | 1.23 | 0.972 | 0.391 | 0.841 | 0.469 | 0.159 | 0.112 |
| NCI-H322M | 0.825 | 0.703 | 0.574 | 0.513 | 0.791 | 0.817 | 0.67 | 0.469 | 0.474 |
| NCI-H1734 | 1.02 | 0.869 | 0.996 | 0.934 | 0.42 | 0.925 | 0.47 | 0.336 | 0.27 |
| HCC-366 | 1.03 | 1.07 | 0.984 | 1.01 | 0.608 | 0.956 | 0.938 | 0.54 | 0.204 |
| NCI-H1437 | 1.01 | 1.03 | 1.03 | 0.958 | 0.296 | 0.95 | 0.976 | 0.55 | 0.22 |
| NCI-H661 | 1 | 0.939 | 1.01 | 0.81 | 0.285 | 0.981 | 0.491 | 0.388 | 0.39 |
| NCI-H1651 | 1.03 | 0.896 | 1.04 | 0.946 | 0.328 | 0.951 | 0.999 | 0.875 | 0.455 |
| NCI-H727 | 0.924 | 0.768 | 0.844 | 0.769 | 0.578 | 0.98 | 0.746 | 0.502 | 0.406 |
| NCI-H2342 | 0.903 | 0.891 | 0.84 | 0.725 | 0.607 | 1.04 | 0.877 | 0.78 | 0.424 |
| HCC-78 | 0.99 | 0.963 | 1.08 | 0.745 | 0.681 | 0.847 | 0.794 | 0.332 | 0.262 |
| RERF-LC-KJ | 0.947 | 0.879 | 0.871 | 0.716 | 0.42 | 0.986 | 0.667 | 0.431 | 0.27 |
| NCI-H1944 |  | 0.72 | 0.916 | 0.594 | 0.206 | 0.903 | 0.629 | 0.367 | 0.268 |
| HOP-62 | 1.01 | 0.972 | 1.08 | 1.04 | 0.673 | 1 | 0.771 | 0.393 | 0.273 |
| NCI-H1703 | 1.01 | 0.911 | 1.02 | 0.989 |  | 0.957 | 0.31 | 0.335 | 0.28 |
| NCI-H2228 | 0.959 | 1 | 1.07 | 0.871 | 0.318 | 1.08 | 0.769 | 0.33 | 0.187 |
| NCI-H1299 | 1.03 | 1.02 | 1.05 | 0.992 |  | 1.03 | 0.699 | 0.473 | 0.364 |
| NCI-H358 | 1.01 | 0.631 | 0.547 | 0.308 | 0.359 | 0.863 | 0.2 | 0.192 | 0.158 |
| NCI-H1648 | 0.83 | 0.704 | 0.608 | 0.439 |  | 0.765 | 0.886 | 0.493 | 0.312 |
